Data taken from PMC8134075, “Structure of mouse cytosolic sulfotransferase SULT2A8 provides insight into sulfonation of 7α-hydroxyl bile acids” (Journal of Lipid Research, 2021).

What was measured:
SULT2A8 [1] = biological target: T1, SULT2A8 (Mus musculus, UniProt Q8BGL3, L99V); assay: thermal shift assay (Thermofluor); type: binding; details: 20 mM Hepes pH 8.0, 150 mM NaCl, 4 mM DTT; ligand 250 mM [sic]
T1 construct: truncated, residues 4-282 (first three residues removed), N-terminal GST tag cleaved with PreScission protease (pGEX-6P-3); E. coli BL21(DE3), purified from inclusion bodies; homodimer in crystal
T1 sequence (Q8BGL3 4-282 L99V): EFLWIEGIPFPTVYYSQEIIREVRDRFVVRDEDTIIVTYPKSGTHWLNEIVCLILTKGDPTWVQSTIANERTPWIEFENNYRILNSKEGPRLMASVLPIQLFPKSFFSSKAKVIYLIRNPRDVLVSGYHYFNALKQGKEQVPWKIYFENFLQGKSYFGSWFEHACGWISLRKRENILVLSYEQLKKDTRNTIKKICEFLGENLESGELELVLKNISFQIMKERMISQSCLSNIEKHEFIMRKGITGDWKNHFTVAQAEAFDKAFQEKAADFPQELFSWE

SULT2A8 [2] = biological target: T2, SULT2A8 (Mus musculus, UniProt Q8BGL3); assay: thermal shift assay (Thermofluor); type: binding; details: 20 mM Hepes pH 8.0, 150 mM NaCl, 4 mM DTT, ligand 250 mM [sic]
T2 construct: truncated, residues 4-282 (first three residues removed), N-terminal GST tag cleaved with PreScission protease (pGEX-6P-3); E. coli BL21(DE3), purified from inclusion bodies; homodimer in crystal
T2 sequence (Q8BGL3 4-282): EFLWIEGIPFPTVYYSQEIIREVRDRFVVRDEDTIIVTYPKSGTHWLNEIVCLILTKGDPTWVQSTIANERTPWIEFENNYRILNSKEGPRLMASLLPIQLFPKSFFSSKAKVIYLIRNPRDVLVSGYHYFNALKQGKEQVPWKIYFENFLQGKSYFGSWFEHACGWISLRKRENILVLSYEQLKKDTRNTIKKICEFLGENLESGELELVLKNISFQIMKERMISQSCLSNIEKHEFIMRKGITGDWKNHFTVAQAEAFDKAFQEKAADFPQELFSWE

SULT2A8 [3] = biological target: T3, SULT2A8 (Mus musculus, UniProt Q8BGL3, L99T); assay: thermal shift assay (Thermofluor); type: binding; details: 20 mM Hepes pH 8.0, 150 mM NaCl, 4 mM DTT; ligand 250 mM [sic]
T3 construct: truncated, residues 4-282 (first three residues removed), N-terminal GST tag cleaved with PreScission protease (pGEX-6P-3); E. coli BL21(DE3), purified from inclusion bodies; homodimer in crystal
T3 sequence (Q8BGL3 4-282 L99T): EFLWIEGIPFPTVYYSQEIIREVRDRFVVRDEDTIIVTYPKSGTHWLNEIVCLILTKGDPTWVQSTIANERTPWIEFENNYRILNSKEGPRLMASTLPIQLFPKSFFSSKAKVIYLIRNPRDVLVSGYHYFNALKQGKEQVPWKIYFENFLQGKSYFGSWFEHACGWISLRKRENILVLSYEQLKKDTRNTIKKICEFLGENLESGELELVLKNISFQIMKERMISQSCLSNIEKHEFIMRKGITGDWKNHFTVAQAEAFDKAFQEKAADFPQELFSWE

SULT2A8 [4] = biological target: T2, SULT2A8; assay: X-ray crystal structure; type: binding; details: pH 5.1
SULT2A8 [5] = biological target: T4, SULT2A8 (Mus musculus, UniProt Q8BGL3, N72W); assay: thermal shift assay (Thermofluor); type: binding; details: 20 mM Hepes pH 8.0, 150 mM NaCl, 4 mM DTT; ligand 250 mM [sic]
T4 construct: truncated, residues 4-282 (first three residues removed), N-terminal GST tag cleaved with PreScission protease (pGEX-6P-3); E. coli BL21(DE3), purified from inclusion bodies; homodimer in crystal
T4 sequence (Q8BGL3 4-282 N72W): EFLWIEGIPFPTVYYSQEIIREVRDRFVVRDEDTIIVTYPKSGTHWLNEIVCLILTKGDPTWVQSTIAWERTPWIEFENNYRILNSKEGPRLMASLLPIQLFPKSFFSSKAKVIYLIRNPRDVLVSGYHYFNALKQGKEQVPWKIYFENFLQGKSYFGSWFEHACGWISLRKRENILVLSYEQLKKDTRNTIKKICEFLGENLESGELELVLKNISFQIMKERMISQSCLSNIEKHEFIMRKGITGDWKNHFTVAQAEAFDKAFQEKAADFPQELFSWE

SULT2A8 [6] = biological target: T5, SULT2A8 (Mus musculus, UniProt Q8BGL3, H48T); assay: thermal shift assay (Thermofluor); type: binding; details: 20 mM Hepes pH 8.0, 150 mM NaCl, 4 mM DTT; ligand 250 mM [sic]
T5 construct: truncated, residues 4-282 (first three residues removed), N-terminal GST tag cleaved with PreScission protease (pGEX-6P-3); E. coli BL21(DE3), purified from inclusion bodies; homodimer in crystal
T5 sequence (Q8BGL3 4-282 H48T): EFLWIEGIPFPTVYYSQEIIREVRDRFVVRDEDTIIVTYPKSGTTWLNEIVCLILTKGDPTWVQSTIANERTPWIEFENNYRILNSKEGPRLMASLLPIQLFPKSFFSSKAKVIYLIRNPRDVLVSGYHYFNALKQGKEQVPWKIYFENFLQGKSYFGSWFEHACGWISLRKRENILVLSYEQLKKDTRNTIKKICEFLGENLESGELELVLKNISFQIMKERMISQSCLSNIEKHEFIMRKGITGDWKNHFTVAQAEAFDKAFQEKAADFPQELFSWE

SULT2A8 [7] = biological target: T2, SULT2A8; assay: HPLC of PAP generated; type: biochemical; details: 50 μM PAPS, 100 μM bile acid, 2.5 mM MgCl2, pH 5.5 or 7.5, 37°C
[8] = biological target: the molecule itself; assay: crystal structure; SULT2A8 (4-282) cocrystallised with PAP and CA, pH 5.1, 16°C; space group P4(2), two copies per asymmetric unit; dimerization read from analysis of the crystal packing

Molecule: Nc1ncnc2c1ncn2[C@@H]1O[C@H](COP(=O)(O)O)[C@@H](OP(=O)(O)O)[C@H]1O [PAP]
- Tm (SULT2A8 [1]): Tm values of these mutants were significantly increased when PAP was included
- Tm (SULT2A8 [2]): from 54 to 61 °C
- Tm (SULT2A8 [3]): Tm values of these mutants were significantly increased when PAP was included
- X-ray crystal structure, 2.5 A (SULT2A8 [4]; co-crystal with cholic acid, PAPS binding pocket, cofactor product/analogue): SULT2A8 protein was cocrystallized with PAP and CA
- Tm (SULT2A8 [5]): the Tm value of N72W was increased when PAP was added
- Tm (SULT2A8 [6]): Tm values of these mutants were significantly increased when PAP was included

Molecule: C[C@H](CCC(=O)O)[C@H]1CC[C@H]2[C@@H]3[C@H](O)C[C@@H]4C[C@H](O)CC[C@]4(C)[C@H]3CC[C@]12C [Na CDC]
- Tm (SULT2A8 [2]): Na CDC, or sodium taurochenodeoxycholate) were added

Molecule: C[C@H](CCC(=O)O)[C@H]1CC[C@H]2[C@@H]3[C@H](O)C[C@@H]4C[C@H](O)CC[C@]4(C)[C@H]3C[C@H](O)[C@]12C [Na C]
- Tm (SULT2A8 [2]; with PAP): Tm values were further increased when both PAP and native substrates (Na C, Na T-C

Molecule: C[C@H](CCC(=O)NCCS(=O)(=O)O)[C@H]1CC[C@H]2[C@@H]3[C@H](O)C[C@@H]4C[C@H](O)CC[C@]4(C)[C@H]3CC[C@]12C [Na T-CDC]
- Tm (SULT2A8 [2]): Na CDC, or sodium taurochenodeoxycholate) were added

Molecule: Nc1ncnc2c1ncn2[C@@H]1O[C@H](COP(=O)(O)OS(=O)(=O)O)[C@@H](OP(=O)(O)O)[C@H]1O [PAPS]
- HPLC of PAP generated (SULT2A8 [7]): quantification of PAP generated from the sulfonation of substrates

Molecule: C[C@H](CCC(=O)O)[C@H]1CC[C@H]2[C@@H]3[C@H](O)C[C@@H]4C[C@H](O)CC[C@]4(C)[C@H]3C[C@H](O)[C@]12C [CA]
- X-ray crystal structure, 2.5 A (SULT2A8 [4]; co-crystal with PAP, substrate pocket): SULT2A8 was cocrystallized with PAP and its native substrate CA

B1: mouse cytosolic sulfotransferase SULT2A8 (residues 4-282) (enzyme, UniProt Q8BGL3 4-282, looked up)
chain: EFLWIEGIPFPTVYYSQEIIREVRDRFVVRDEDTIIVTYPKSGTHWLNEIVCLILTKGDPTWVQSTIANERTPWIEFENNYRILNSKEGPRLMASLLPIQLFPKSFFSSKAKVIYLIRNPRDVLVSGYHYFNALKQGKEQVPWKIYFENFLQGKSYFGSWFEHACGWISLRKRENILVLSYEQLKKDTRNTIKKICEFLGENLESGELELVLKNISFQIMKERMISQSCLSNIEKHEFIMRKGITGDWKNHFTVAQAEAFDKAFQEKAADFPQELFSWE
notes: Sulfotransferase 2A8 (SULT2A8), mouse, residues 4-282 (first three N-terminal residues removed), cloned in pGEX-6P-3 from pRSET-SULT2A8; Crystallised with the small molecules PAP and cholic acid; two copies per asymmetric unit; also called mSULT2A8; SULT2A8 WT; source: E. coli BL21(DE3), purified from inclusion bodies (Glutathione Sepharose 4B, PreScission cleavage, Superdex 75); not shown: GST, …
- binding result [8]: binds
